From patent US11917995B2, “Fungicidal compositions of mefentrifluconazole” (BASF AGRO B.V., priority 2018, dated 2024)

Columns and labels:
Assay type in all cases: cell-based
[1] = system: Septoria tritici; experiment: Microtest: activity against leaf blotch on wheat caused by Septoria tritici (Septtr); conditions: single active compound, 0.001 ppm; 7 days after inoculation
Procedure: (§1) The visually determined percentages of infected leaf areas are converted into efficacies in % of the untreated control.
(§2) The efficacy (E) is calculated as follows using Abbot's formula: E=(1−α/β·100 • α corresponds to the fungicidal infection of the treated plants in % and • β corresponds to the fungicidal infection of the untreated (control) plants in %
(§3) An efficacy of 0 means that the infection level of the treated plants corresponds to that of the untreated control plants; an efficacy of 100 means that the treated plants were not infected. The expected efficacies of active compound combinations may be determined using Colby's formula (Colby, S. R. “Calculating synergistic and antagonistic responses of herbicide combinations”, Weeds, 15, pp. 20-22, 1967) and compared with the observed efficacies. […]
The stock solutions were mixed according to the ratio, pipetted onto a micro titer plate (MTP) and diluted with water to the stated concentrations. […] Using an absorption photometer, the MTPs were measured at 405 nm 7 days after the inoculation.
(§4) The measured parameters were compared to the growth of the active compound-free control variant (100%) and the fungus-free and active compound-free blank value to determine the relative growth in % of the pathogens in the respective active compounds.

[2] = system: Colletotrichum truncatum; experiment: Microtiterplate test: activity against Colletotrichum truncatum (Colldu); conditions: single active compound, 7 days after inoculation
Procedure: as §1, §2
(§5) An efficacy of 0 means that the infection level of the treated plants corresponds to that of the untreated control plants; an efficacy of 100 means that the treated plants were not infected. The expected efficacies of active compound combinations may be determined using Colby's formula (Colby, S. R. “Calculating synergistic and antagonistic responses of herbicide combinations”, Weeds, 15, pp. 20-22, 1967) and compared with the observed efficacies.
(§6) Colby's formula: E=x+y−x·y/100 • E expected efficacy, expressed in % of the untreated control, when using the mixture of the active compounds A and B at the concentrations a and b • x efficacy, expressed in % of the untreated control, when using the active compound A at the concentration a • y efficacy, expressed in % of the untreated control, when using the active compound B at the concentration b.
(§7) The active compounds were formulated separately as a stock solution having a concentration of 10000 ppm in dimethyl sulfoxide.
(§8) The stock solutions were mixed according to the ratio, pipetted onto a micro titer plate(MTP) and diluted with water to the stated concentrations. Spores of the respective pathogen in an aqueous biomalt or yeast-bactopeptone-glycerine solution were then added. The plates were placed in a water vapor-saturated chamber at a temperature of 18° C. Using an absorption photometer, the MTPs were measured at 405 nm 7 days after the inoculation.
as §4

[3] = system: Colletotrichum orbicularum; experiment: Microtiterplate test: activity against Colletotrichum orbicularum (Collla); conditions: single active compound, 7 days after inoculation
Procedure: as §1, §2, §5, §6, §7, §8, §4

[4] = system: Sclerotinia sclerotiorum; experiment: Microtiterplate test: activity against Sclerotinia sclerotiorum (Sclesc); conditions: single active compound, 0.25 ppm; 7 days after inoculation
Procedure: as §1, §2, §3
The stock solutions were mixed according to the ratio, pipetted onto a micro titer plate(MTP) and diluted with water to the stated concentrations. […] Using an absorption photometer, the MTPs were measured at 405 nm 7 days after the inoculation.
as §4

CCN(C)C=Nc1cc(C)c(Oc2ccccc2)cc1C [II-3, N′-(2,5-dimethyl-4-phenoxy-phenyl)-N-ethyl-N-methyl-formamidine]
Observed efficacy [1]: 5% | Observed efficacy ([2]; 4 ppm): 16% | Observed efficacy ([3]; 0.25 ppm): 19% | Observed efficacy [4]: 11%

CC(O)(Cn1cncn1)c1ccc(Oc2ccc(Cl)cc2)cc1C(F)(F)F (stereo not drawn) [Mefentrifluconazole, mefentrifluconazole]
Observed efficacy [1]: 0% | Observed efficacy ([2]; 0.063 ppm): 0% | Observed efficacy ([2]; 0.25 ppm): 8% | Observed efficacy ([2]; 1 ppm): 18% | Observed efficacy ([2]; 4 ppm): 28% | Observed efficacy ([3]; 0.25 ppm): 7% | Observed efficacy ([3]; 1 ppm): 25% | Observed efficacy [4]: 1%
